Data taken from article PMC13298843, “Substituent size versus metal binding of inhibitors with variants of influenza endonuclease^” (Journal of inorganic biochemistry, 2025).
Where two headings read alike, the source gives them in different places.

Assays:
[1] = test system: influenza; details: oral monotherapy taken at time of diagnosis; cited from earlier work
[2] = biological target: WT enzyme (PAN endonuclease); parameters: method as in PMID 31536340; details: FRET-based assay, cited from earlier work
[3] = type: physicochemical; details: at 1000 μM in DSF buffer with 4 % DMSO
[4] = read-out: pIC50 values (converted)
[5] = at edge of limit of detection, read-out: IC50 values

In the case of `COC(=O)OCOc1c2n(ccc1=O)N([C@@H]1c3ccccc3SCc3c1ccc(F)c3F)[C@@H]1COCCN1C2=O` [BXM, Baloxavir marboxil], the “time to reduce fever (average)” value [1] is given as 24 h.

For `Cc1ccccc1-c1cc(=O)c(O)c(C(=O)O)[nH]1` [Compound 1], the IC50 [2, 4] is listed as less than 2 nM.

In the case of `CCc1ccccc1-c1cc(=O)c(O)c(C(=O)O)[nH]1` [Compound 2], the IC50 [2, 4] is given as less than 2 nM.

In the case of `CSc1ccccc1-c1cc(=O)c(O)c(C(=O)O)[nH]1` [Compound 3], the IC50 [2, 5] is given as roughly 3 nM.

For `O=C(O)c1[nH]c(-c2ccccc2Oc2ccccc2)cc(=O)c1O` [Compound 4], the IC50 [2, 5] is given as roughly 3 nM and the solubility [3] is given as “poorly soluble”.
